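Here, GI50 denotes the concentration required for 50% inhibition of growth. At the TGI there is no net growth.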
Experiments:
Assay in all cases: inhibition of tumour cell growth, NCI panel, 384-well format
ACHN renal = tested on: ACHN renal
NCI/ADR-RES ovarian = tested on: NCI/ADR-RES ovarian
NCI-H322M lung = tested on: NCI-H322M lung
HOP-92 NSCLC = tested on: HOP-92 NSCLC
SF-268 CNS = tested on: SF-268 CNS
UACC-257 melanoma = tested on: UACC-257 melanoma
MDA-MB-468 breast = tested on: MDA-MB-468 breast
TK-10 renal = tested on: TK-10 renal
OVCAR-8 ovarian = tested on: OVCAR-8 ovarian
IGROV1 ovarian = tested on: IGROV1 ovarian
RPMI-8226 leukemia = tested on: RPMI-8226 leukemia
SK-MEL-28 melanoma = tested on: SK-MEL-28 melanoma
HOP-62 NSCLC = tested on: HOP-62 NSCLC
MALME-3M melanoma = tested on: MALME-3M melanoma
NCI-H522 lung = tested on: NCI-H522 lung
SK-OV-3 ovarian = tested on: SK-OV-3 ovarian
SW-620 colon = tested on: SW-620 colon
NCI-H23 lung = tested on: NCI-H23 lung
M14 melanoma = tested on: M14 melanoma
PC-3 prostate = tested on: PC-3 prostate
MOLT-4 leukemia = tested on: MOLT-4 leukemia
KM12 colon = tested on: KM12 colon
BT-549 breast = tested on: BT-549 breast
COLO 205 colon = tested on: COLO 205 colon
CAKI-1 renal = tested on: CAKI-1 renal
SF-295 CNS = tested on: SF-295 CNS
T-47D breast = tested on: T-47D breast
HCT-15 colon = tested on: HCT-15 colon
786-0 renal = tested on: 786-0 renal
SNB-75 CNS = tested on: SNB-75 CNS
A549 NSCLC = tested on: A549 NSCLC
A498 renal = tested on: A498 renal
UO-31 renal = tested on: UO-31 renal
SN12C renal = tested on: SN12C renal
HS 578T breast = tested on: HS 578T breast
RXF 393 renal = tested on: RXF 393 renal
HL-60(TB) leukemia = tested on: HL-60(TB) leukemia
OVCAR-3 ovarian = tested on: OVCAR-3 ovarian
UACC-62 melanoma = tested on: UACC-62 melanoma
EKVX NSCLC = tested on: EKVX NSCLC
LOX IMVI melanoma = tested on: LOX IMVI melanoma
SF-539 CNS = tested on: SF-539 CNS
CCRF-CEM leukemia = tested on: CCRF-CEM leukemia
MDA-MB-231 breast = tested on: MDA-MB-231 breast
HCC-2998 colon = tested on: HCC-2998 colon
DU-145 prostate = tested on: DU-145 prostate
OVCAR-4 ovarian = tested on: OVCAR-4 ovarian
OVCAR-5 ovarian = tested on: OVCAR-5 ovarian
U251 glioblastoma = tested on: U251 glioblastoma
K-562 leukemia = tested on: K-562 leukemia
SNB-19 CNS = tested on: SNB-19 CNS
SK-MEL-5 melanoma = tested on: SK-MEL-5 melanoma
NCI-H460 NSCLC = tested on: NCI-H460 NSCLC
MDA-MB-435 melanoma = tested on: MDA-MB-435 melanoma
SR leukemia = tested on: SR leukemia
NCI-H226 lung = tested on: NCI-H226 lung
MCF7 breast = tested on: MCF7 breast
HT29 colon = tested on: HT29 colon

Cn1cc(-c2cnc3ccc4ccc(CS(=O)(=O)NCc5ccccn5)cc4c(=O)c3c2)cn1
GI50 (ACHN renal): 24.7 µM
TGI (ACHN renal): 98.4 µM
GI50 (NCI/ADR-RES ovarian): 16.2 µM
TGI (NCI/ADR-RES ovarian): 37.4 µM
GI50 (NCI-H322M lung): 21.3 µM
TGI (NCI-H322M lung): 64.6 µM
GI50 (HOP-92 NSCLC): 14.7 µM
TGI (HOP-92 NSCLC): 34.1 µM
GI50 (SF-268 CNS): 18.4 µM
TGI (SF-268 CNS): 38.6 µM
GI50 (UACC-257 melanoma): 18.3 µM
TGI (UACC-257 melanoma): 32.3 µM
GI50 (MDA-MB-468 breast): 2.79 µM
TGI (MDA-MB-468 breast): 7.05 µM
GI50 (TK-10 renal): 20.8 µM
TGI (TK-10 renal): 51.5 µM
GI50 (OVCAR-8 ovarian): 16.2 µM
TGI (OVCAR-8 ovarian): 36.5 µM
GI50 (IGROV1 ovarian): 16.7 µM
TGI (IGROV1 ovarian): 33 µM
GI50 (RPMI-8226 leukemia): 5.18 µM
TGI (RPMI-8226 leukemia): 17.5 µM
GI50 (SK-MEL-28 melanoma): 17 µM
TGI (SK-MEL-28 melanoma): 32 µM
GI50 (HOP-62 NSCLC): 13 µM
TGI (HOP-62 NSCLC): 27.8 µM
GI50 (MALME-3M melanoma): 12.3 µM
TGI (MALME-3M melanoma): 25.4 µM
GI50 (NCI-H522 lung): 13.1 µM
TGI (NCI-H522 lung): 25.9 µM
GI50 (SK-OV-3 ovarian): 13.4 µM
TGI (SK-OV-3 ovarian): 31.3 µM
GI50 (SW-620 colon): 14 µM
TGI (SW-620 colon): 28.8 µM
GI50 (NCI-H23 lung): 11.6 µM
TGI (NCI-H23 lung): 24.5 µM
GI50 (M14 melanoma): 12.9 µM
TGI (M14 melanoma): 26.1 µM
GI50 (PC-3 prostate): 20.5 µM
TGI (PC-3 prostate): 42.5 µM
GI50 (MOLT-4 leukemia): 3.23 µM
TGI (MOLT-4 leukemia): 10.6 µM
GI50 (KM12 colon): 11.4 µM
TGI (KM12 colon): 26.6 µM
GI50 (BT-549 breast): 14.9 µM
TGI (BT-549 breast): 30.8 µM
GI50 (COLO 205 colon): 34.1 µM
TGI (COLO 205 colon): > 100 µM
GI50 (CAKI-1 renal): 32.7 µM
TGI (CAKI-1 renal): > 100 µM
GI50 (SF-295 CNS): 13.3 µM
TGI (SF-295 CNS): 33.8 µM
GI50 (T-47D breast): 15.5 µM
TGI (T-47D breast): 30.5 µM
GI50 (HCT-15 colon): 4.28 µM
TGI (HCT-15 colon): 14.7 µM
GI50 ([…]-0 renal): 37.6 µM
TGI (786-0 renal): > 100 µM
GI50 (SNB-75 CNS): 15.9 µM
TGI (SNB-75 CNS): 30.2 µM
GI50 (A549 NSCLC): 40.4 µM
TGI (A549 NSCLC): > 100 µM
GI50 (A498 renal): 23.1 µM
TGI (A498 renal): > 100 µM
GI50 (UO-31 renal): 35.9 µM
TGI (UO-31 renal): > 100 µM
GI50 (SN12C renal): 19.9 µM
TGI (SN12C renal): 46.4 µM
GI50 (HS 578T breast): 14.4 µM
TGI (HS 578T breast): 33.3 µM
GI50 (RXF 393 renal): 13.5 µM
TGI (RXF 393 renal): 26.8 µM
GI50 (HL-60(TB) leukemia): 13.2 µM
TGI (HL-60(TB) leukemia): 26 µM
GI50 (OVCAR-3 ovarian): 14 µM
TGI (OVCAR-3 ovarian): 28.1 µM
GI50 (UACC-62 melanoma): 12 µM
TGI (UACC-62 melanoma): 24.5 µM
GI50 (EKVX NSCLC): 17.9 µM
TGI (EKVX NSCLC): 35.7 µM
GI50 (LOX IMVI melanoma): 16.3 µM
TGI (LOX IMVI melanoma): 30.2 µM
GI50 (SF-539 CNS): 15.3 µM
TGI (SF-539 CNS): 28.9 µM
GI50 (CCRF-CEM leukemia): 7.51 µM
TGI (CCRF-CEM leukemia): 19.8 µM
GI50 (MDA-MB-231 breast): 15.2 µM
TGI (MDA-MB-231 breast): 30.4 µM
GI50 (HCC-2998 colon): 15 µM
TGI (HCC-2998 colon): 28.7 µM
GI50 (DU-145 prostate): 20 µM
TGI (DU-145 prostate): 51.2 µM
GI50 (OVCAR-4 ovarian): 14.9 µM
TGI (OVCAR-4 ovarian): 29.6 µM
GI50 (OVCAR-5 ovarian): 25.4 µM
TGI (OVCAR-5 ovarian): 49.3 µM
GI50 (U251 glioblastoma): 21.2 µM
TGI (U251 glioblastoma): 65.3 µM
GI50 (K-562 leukemia): 5.42 µM
TGI (K-562 leukemia): 17.8 µM
GI50 (SNB-19 CNS): 20.8 µM
TGI (SNB-19 CNS): 53.1 µM
GI50 (SK-MEL-5 melanoma): 8.26 µM
TGI (SK-MEL-5 melanoma): 20.8 µM
GI50 (NCI-H460 NSCLC): 15.1 µM
TGI (NCI-H460 NSCLC): 28.9 µM
GI50 (MDA-MB-435 melanoma): 3.77 µM
TGI (MDA-MB-435 melanoma): 12.2 µM
GI50 (SR leukemia): 1.91 µM
TGI (SR leukemia): 4.24 µM
GI50 (NCI-H226 lung): 13.7 µM
TGI (NCI-H226 lung): 30.5 µM
GI50 (MCF7 breast): 10 µM
TGI (MCF7 breast): 26.9 µM
GI50 (HT29 colon): 15.4 µM
TGI (HT29 colon): 32.7 µM

Reference: PubChem BioAssay (NCI)
